Experimental data taken from patent US7709606B2, “Interacting polypeptide comprising a heptapeptide pattern and a cellular penetration domain” (Ecole Normale Superieure de Lyon, priority 2003, dated 2010).
Like-named read-outs stand apart in the source and are kept apart here.

Assays:
[1] = tested on: HIV-1/Ba-L; experiment: antiviral test in monocyte-derived macrophages (MDM), RT activity; assay type: cell-based; details: for EC50: Human immunodeficiency virus 1, BAL, Macrophage, read-out: ED50 (the source's name); for EC50 / Percentage inhibition, Mean / ED70 / ED90: MDMs, HIV-1/Ba-L; for anti-HIV activity, HIV-1/Ba-L replication: in words
Protocol: (§1) These viruses were amplified in vitro with umbilical blood mononuclear cells (UBMC) activated with PHA-P. The cell-free supernatant was centrifuged at […] for 10 minutes to eliminate soluble factors, and the residue was re-suspended in cell culture medium. Virus stocks were titrated using PBMC cells activated with PHA-P and 50% tissue culture infectious doses (TCID50) were calculated using Kärber's formula.
The MDM cells were pre-treated for 30 minutes in 6 concentrations of different molecules and infected with 30000 TCID50 of the HIV-1/Ba-L strain. AZT (0.8, 4, 20, 100 and 500 nM) and indinavir (0.8, 4, 20, 100 and 500 nM) were used as the control. […] The molecules were maintained for 7 days post infection, and the cellular supernatant was harvested 7, 14 and 21 days post infection and stored at −20° C. to measure viral replication by reverse transcriptase activity (RT) assay.
(§2) HIV replication was analyzed by assaying the RT activity in the supernatants from cell cultures using the RetroSys RT kit (Innovagen). The experiments were carried out 3 times and the results are expressed as the mean of the RT activity±the standard deviation (SD).

[2] = tested on: HIV-1-LA1; experiment: antiviral test in PHA-P activated PBMC, RT activity; assay type: cell-based; details: for anti-HIV activity, replication of HIV-1-LA1: PBMC activated by PHA-P, 7th day, in words; for Percentage inhibition, Mean: HIV-1 LA1, day 7; for reduction of HIV-1 replication: PBMC activated with PHA-P
Protocol: as §1
PBMC cells were pre-treated for 30 minutes by 5 concentrations of each molecule and infected with 75 TCID50 of the HIV-1-LA1 strain. AZT (1.6, 8, 40, 200 and 1000 nM) and indinavir (1.6, 8, 40, 200 and 1000 nM) were used as the control. […] The molecules were maintained throughout culture, and the cellular supernatant was harvested 7 days post infection and stored at −20° C. to measure viral replication by reverse transcriptase activity (RT) assay.
as §2
In a last step, it was examined whether SHPs were actually capable of inhibiting HIV-1 replication. This was carried out in PBMCs activated by PHA-P and in MDMs. […] The effects of different SHPs was thus tested at this time. AZT and indinavir were used as controls.

[3] = tested on: Jurkat cells; experiment: intracellular entry, immunofluorescence in Jurkat cells; assay type: cell-based; details: 2 μM for one hour, analyzed 24 h later
Protocol: Light transmission and fluorescence images are shown for representative cells.
The immunofluorescence tests were carried out with a primary anti-FLAG antibody in a dilution of 1:500 incubated for 2 hours and a secondary antibody coupled to the Alexa Fluor 488 fluorophore (Molecular Probes) diluted 1:1000, incubated for one hour.
To confirm that SHPs do indeed enter the cell, immunofluorescence analyses were also carried out. Jurkat cells were incubated with 1 μM of SHP for 4 hours and after washing twice, the cells were cultured for 24 hours.

[4] = tested on: PBMCs (resting and activated lymphocytes); experiment: penetration into PBMCs and stability in medium, anti-FLAG immunoblot; assay type: cell-based, human
Protocol: Mononuclear cells were prepared from peripheral blood, either directly (A) or after activation with PHA (phytohemagglutinin) and IL-2 (interleukin 2) (B), then incubated with 2 μM of SHPR-190. At the times indicated after addition of the interacting peptide, an aliquot of supernatant was analyzed by immunoblot using antibodies against FLAG (A, lines 1 to 4; B, lines 1 to 3). The cells were collected and lysed in RIPA buffer. The extract obtained was analyzed by immunoblot as described for the supernatant (A, lines 5 and 6; B, line 4). In portion A, the exposure times were different between lines 5 and 6 (30 s) and lines 1 to 4 (5 s).
To evaluate the capacity of SHPs to penetrate into cells, PBMCs were cultivated in medium supplemented with 2 μM of SHPR-190. At different times, an aliquot of supernatant was removed and the cells were collected. After washing several times, the cells were lysed in RIPA buffer and the supernatant as well as that which was extracted was analyzed by immunoblot using an antibody directed against the FLAG eiptope, which is present at the N-terminal end of SHP produced in bacteria.

[5] = target: Rev (Human immunodeficiency virus type 1 group M subtype B, UniProt P04618); details: HeLa cells
Protocol: This type of indicative construct allowed an evaluation of the effect of Rev, which by causing transport towards the cytoplasm of the non spliced RNA, allowed expression of the CAT enzyme.
The CAT activity was measured using the CAT ELISA kit (Roche).
The SHPR activity was evaluated using the reporter construct pDM128 which included the coding sequence CAT and an RRE motif in an intron. Expression of Rev stimulated expression of CAT allowing an unspliced messenger to be exported to the cytoplasm.
These various mutants were tested using a transitory expression system consisting of transfecting HeLa cells of the reporter plasmid having the CAT sequence associated with the RRE in the intronic position with expression vectors for the Rev protein and the SHPR protein. […] The separation between the two values was less than 20%.
These vectors were transfected with the reporter plasmid pDM128 and the expression vector Rev as described in the above sections (and in Roisin et al, JBC (2004) 279: 9208). The quantity of CAT protein is expressed as a % of that corresponding to transfection of parental SHPR. A value of more than 100 thus indicates a negative effect on the inhibiting power of SHPR and a lower value indicates an increase in this inhibiting property.

[6] = target: Rev/RRE association (Human immunodeficiency virus type 1 group M subtype B, UniProt P04618); details: Rev produced in bacteria, RRE RNA probe
Protocol: To this end, gel retard experiments were carried out with a RNA molecule corresponding to the RRE element as the probe. The Rev protein produced in bacteria binds to this RNA and induces a non denaturing polyacrylamide gel migration retardation.

## CC(C)(C)NC(=O)[C@@H]1CN(Cc2cccnc2)CCN1C[C@@H](O)C[C@@H](Cc1ccccc1)C(=O)N[C@H]1c2ccccc2C[C@H]1O [IDV, indinavir, reference compound]
[1]; 336 h, Day 14
  EC50: 22 nM
[1]; 504 h, Day 21
  EC50: 22 nM
[1]; MDM
  anti-HIV activity, HIV-1/Ba-L replication: reduced in a dose-dependent manner
[1]; Day 7, dose 0.8 (nM)
  Percentage inhibition, Mean: 59%
[1]; Day 7, dose 4 (nM)
  Percentage inhibition, Mean: 69%
[1]; Day 7, dose 20 (nM)
  Percentage inhibition, Mean: 90%
[1]; Day 7, dose 100 (nM)
  Percentage inhibition, Mean: 93%
[1]; Day 7, dose 500 (nM)
  Percentage inhibition, Mean: 97%
[1]; Day 14
  ED70: 26.5 nM
  ED90: 34.5 nM
[1]; Day 14, dose 0.8 (nM)
  Percentage inhibition, Mean: 0%
[1]; Day 14, dose 4 (nM)
  Percentage inhibition, Mean: 0%
[1]; Day 14, dose 20 (nM)
  Percentage inhibition, Mean: 68%
[1]; Day 14, dose 100 (nM)
  Percentage inhibition, Mean: 100%
[1]; Day 14, dose 500 (nM)
  Percentage inhibition, Mean: 100%
[1]; Day 21
  ED70: 32 nM
  ED90: 62 nM
[1]; Day 21, dose 0.8 (nM)
  Percentage inhibition, Mean: 0%
[1]; Day 21, dose 4 (nM)
  Percentage inhibition, Mean: 0%
[1]; Day 21, dose 20 (nM)
  Percentage inhibition, Mean: 47%
[1]; Day 21, dose 100 (nM)
  Percentage inhibition, Mean: 96%
[1]; Day 21, dose 500 (nM)
  Percentage inhibition, Mean: 100%
[2]; Human immunodeficiency virus 1, PBMC, PBMCs, HIV-1-LA1, 7th day, read-out: ED50 (the source's name)
  EC50: 14 nM
[2]
  anti-HIV activity, replication of HIV-1-LA1: effectively inhibited
[2]; PBMCs, HIV-1-LA1, 7th day
  ED70: 18 nM
  ED90: 25.5 nM
[2]; PBMCs, Dose 1.6 (nM)
  Percentage inhibition, Mean: 0%
[2]; PBMCs, Dose 8 (nM)
  Percentage inhibition, Mean: 67%
[2]; PBMCs, Dose 40 (nM)
  Percentage inhibition, Mean: 92%
[2]; PBMCs, Dose 200 (nM)
  Percentage inhibition, Mean: 100%
[2]; PBMCs, Dose 1000 (nM)
  Percentage inhibition, Mean: 100%

## Cc1cn([C@H]2C[C@H](N=[N+]=[N-])[C@@H](CO)O2)c(=O)[nH]c1=O [AZT, reference compound]
[1]; MDM
  anti-HIV activity, HIV-1/Ba-L replication: reduced in a dose-dependent manner
[1]; Day 7, dose 0.8 (nM)
  Percentage inhibition, Mean: 76%
[1]; Day 7, dose 4 (nM)
  Percentage inhibition, Mean: 72%
[1]; Day 7, dose 20 (nM)
  Percentage inhibition, Mean: 87%
[1]; Day 7, dose 100 (nM)
  Percentage inhibition, Mean: 88%
[1]; Day 7, dose 500 (nM)
  Percentage inhibition, Mean: 93%
[1]; Day 14
  ED70: 9 nM
  ED90: 64 nM
[1]; Day 14, dose 0.8 (nM)
  Percentage inhibition, Mean: 0%
[1]; Day 14, dose 4 (nM)
  Percentage inhibition, Mean: 55%
[1]; Day 14, dose 20 (nM)
  Percentage inhibition, Mean: 82%
[1]; Day 14, dose 100 (nM)
  Percentage inhibition, Mean: 92%
[1]; Day 14, dose 500 (nM)
  Percentage inhibition, Mean: 100%
[1]; Day 21, dose 0.8 (nM)
  Percentage inhibition, Mean: 0%
[1]; Day 21, dose 4 (nM)
  Percentage inhibition, Mean: 0%
[1]; Day 21, dose 20 (nM)
  Percentage inhibition, Mean: 68%
[1]; Day 21, dose 100 (nM)
  Percentage inhibition, Mean: 81%
[1]; Day 21, dose 500 (nM)
  Percentage inhibition, Mean: 100%
[2]
  anti-HIV activity, replication of HIV-1-LA1: effectively inhibited
[2]; PBMCs, HIV-1-LA1, 7th day
  ED70: 13.5 nM
  ED90: 19 nM
[2]; PBMCs, Dose 1.6 (nM)
  Percentage inhibition, Mean: 0%
[2]; PBMCs, Dose 8 (nM)
  Percentage inhibition, Mean: 81%
[2]; PBMCs, Dose 40 (nM)
  Percentage inhibition, Mean: 98%
[2]; PBMCs, Dose 200 (nM)
  Percentage inhibition, Mean: 98%
[2]; PBMCs, Dose 1000 (nM)
  Percentage inhibition, Mean: 100%

B1: SHPR-190: SUMO-1-heptapeptide-Tat PTD protein against Rev; heptapeptide Asn Trp Leu Cys Cys Leu Asn (SEQ ID NO: 3) (protein)
chain: MSDQEAKPSTEDLGDKKEGEYIKLKVIGQDSSEIHFKVKMTTHLKKLKESYCQRQGVPMNSLRFLFEGQRIADNHTPKELGMEEEDVIEVYQEQTARPPNPKKEIELGGGGSNWLCCLNPGRKKRRQRRRG
[3]
  immunofluorescence with antibody against FLAG: diffuse fluorescence
[4]; 2 μM in PBMC culture supernatant
  stability in the culture medium: stable in the culture medium
[4]; 2 μM, resting and activated lymphocytes
  presence inside the cell: a fraction of the protein was present inside the cell
[4]; external concentration of 2 μM, lymphocyte assumed a sphere 12μ in diameter
  intracellular concentration: 15 µM
[5]
  inhibition of the function of Rev (CAT from pDM128): effective inhibitors of the function of Rev
[6]
  effect on Rev/RRE association (gel retardation): did not inhibit this association
[1]; MDM, 2 μM on day 14
  inhibition of HIV replication: 92±2%
[1]; MDM
  anti-HIV activity, HIV-1/Ba-L replication: dose-dependent
[1]; Day 7, dose 62.5 (nM)
  Percentage inhibition, Mean: 0%
[1]; Day 7, dose 125 (nM)
  Percentage inhibition, Mean: 34%
[1]; Day 7, dose 250 (nM)
  Percentage inhibition, Mean: 50%
[1]; Day 7, dose 500 (nM)
  Percentage inhibition, Mean: 89%
[1]; Day 7, dose 1000 (nM)
  Percentage inhibition, Mean: 94%
[1]; Day 7, dose 2000 (nM)
  Percentage inhibition, Mean: 99%
[1]; Day 14
  ED70: 1040 nM
  ED90: 1450 nM
[1]; Day 14, dose 62.5 (nM)
  Percentage inhibition, Mean: 0%
[1]; Day 14, dose 125 (nM)
  Percentage inhibition, Mean: 0%
[1]; Day 14, dose 250 (nM)
  Percentage inhibition, Mean: 0%
[1]; Day 14, dose 500 (nM)
  Percentage inhibition, Mean: 66%
[1]; Day 14, dose 1000 (nM)
  Percentage inhibition, Mean: 70%
[1]; Day 14, dose 2000 (nM)
  Percentage inhibition, Mean: 92%
[1]; Day 21
  ED70: >2000 nM
  ED90: >2000 nM
[1]; Day 21, dose 62.5 (nM)
  Percentage inhibition, Mean: 0%
[1]; Day 21, dose 125 (nM)
  Percentage inhibition, Mean: 0%
[1]; Day 21, dose 250 (nM)
  Percentage inhibition, Mean: 0%
[1]; Day 21, dose 500 (nM)
  Percentage inhibition, Mean: 28%
[1]; Day 21, dose 1000 (nM)
  Percentage inhibition, Mean: 50%
[1]; Day 21, dose 2000 (nM)
  Percentage inhibition, Mean: 60%
[2]
  anti-HIV activity, replication of HIV-1-LA1: reduced replication
[2]; 1 μM
  reduction of HIV-1 replication: 80±7%
[2]; 2 μM
  reduction of HIV-1 replication: 100%
[2]; PBMCs, HIV-1-LA1, 7th day
  ED70: 720 nM
  ED90: 927 nM
[2]; PBMCs, Dose 31 (nM)
  Percentage inhibition, Mean: 0%
[2]; PBMCs, Dose 62.5 (nM)
  Percentage inhibition, Mean: 0%
[2]; PBMCs, Dose 125 (nM)
  Percentage inhibition, Mean: 0%
[2]; PBMCs, Dose 250 (nM)
  Percentage inhibition, Mean: 0%
[2]; PBMCs, Dose 500 (nM)
  Percentage inhibition, Mean: 38%
[2]; PBMCs, Dose 1000 (nM)
  Percentage inhibition, Mean: 80%
[2]; PBMCs, Dose 2000 (nM)
  Percentage inhibition, Mean: 100%
